Measured values reported in PubChem BioAssay AID1963439 (Molecular Pharmacology Branch, DTP, NCI, 2024).
“And” between values parts separate entries of the source, which are not always exact repeats. Equal entries are not always repeated.

Tested on: NCI-H196 complex spheroids with HUVEC/MSC, growth % T/C
Assay: Anticancer human tumor NCI-H196 cell line growth inhibition [Asc];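 note: spheroids exposed to compound for 7 days before measurement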;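 for viability, T/C: 100% = DMSO vehicle control wells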
Conditions: for viability, T/C: stronger effect = lower value
Outline: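 Complex solid-tumor spheroids incorporating human endothelial and mesenchymal stem cells received single agents or combinations over half-log dilution ranges anchored to clinical Cmax.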

[1] = curve of first compound, second compound 0.01 µM
[2] = curve of first compound, second compound 0.0316 µM
[3] = curve of first compound, second compound 0.1 µM
[4] = curve of first compound, second compound 0.316 µM
[5] = curve of first compound, second compound 1 µM
[6] = second compound 0.01 µM, first compound 0.0316 µM
[7] = second compound 0.01 µM, first compound 0.1 µM
[8] = second compound 0.01 µM, first compound 0.316 µM
[9] = second compound 0.01 µM, first compound 1 µM
[10] = second compound 0.0316 µM, first compound 0.0316 µM
[11] = second compound 0.0316 µM, first compound 0.1 µM
[12] = second compound 0.0316 µM, first compound 0.316 µM
[13] = second compound 0.0316 µM, first compound 1 µM
[14] = second compound 0.1 µM, first compound 0.0316 µM
[15] = second compound 0.1 µM, first compound 0.1 µM
[16] = second compound 0.1 µM, first compound 0.316 µM
[17] = second compound 0.1 µM, first compound 1 µM
[18] = second compound 0.316 µM, first compound 0.0316 µM
[19] = second compound 0.316 µM, first compound 0.1 µM
[20] = second compound 0.316 µM, first compound 0.316 µM
[21] = second compound 0.316 µM, first compound 1 µM
[22] = second compound 1 µM, first compound 0.0316 µM
[23] = second compound 1 µM, first compound 0.1 µM
[24] = second compound 1 µM, first compound 0.316 µM
[25] = second compound 1 µM, first compound 1 µM
[26] = second compound 0.1 µM, first compound 0.00316 µM
[27] = second compound 0.1 µM, first compound 0.01 µM
[28] = second compound 0.316 µM, first compound 0.00316 µM
[29] = second compound 0.316 µM, first compound 0.01 µM
[30] = second compound 1 µM, first compound 0.00316 µM
[31] = second compound 1 µM, first compound 0.01 µM
[32] = curve of first compound, second compound 3.16 µM
[33] = curve of first compound, second compound 10 µM

`C#Cc1c(F)ccc2cc(O)cc(-c3ncc4c(N5CC6CCC(C5)N6)nc(OCC56CCCN5CC(F)C6)nc4c3F)c12` (configuration not stated) + CNC(C)C(=O)NC1CN(S(=O)(=O)c2cccc(S(=O)(=O)N3CCC4CCC(C(=O)NC(c5ccccc5)c5ccccc5)N4C(=O)C(NC(=O)C(C)NC)C3)c2)CCC2CCC(C(=O)NC(c3ccccc3)c3ccccc3)N2C1=O gave an IC50 [1] of under 31.6 nM, an IC50 [2] of under 31.6 nM and an IC50 [3] of under 31.6 nM. The IC50 [4] was under 31.6 nM, the IC50 [5] was under 31.6 nM and the viability, T/C [6] was 8.46%. For the same compound, the viability, T/C [7] was 8.46%, the viability, T/C [8] was 4.34% and the viability, T/C [9] was 5.01%. For the same compound, the viability, T/C (second compound 0.01 µM, first compound 3.16 µM) was 4.3%, the viability, T/C (second compound 0.01 µM, first compound 10 µM) was 1.48% and the viability, T/C [10] was 5.72%. The viability, T/C [11] was 5.7%, the viability, T/C [12] was 4.82% and the viability, T/C [13] was 3.76%. The viability, T/C (second compound 0.0316 µM, first compound 3.16 µM) was 4.16%, the viability, T/C (second compound 0.0316 µM, first compound 10 µM) was 0.96% and the viability, T/C [14] was 4.46%. For the same compound, the viability, T/C [15] was 3.83%, the viability, T/C [16] was 4.97% and the viability, T/C [17] was 3.85%. It also gave a viability, T/C (second compound 0.1 µM, first compound 3.16 µM) of 3.73%, a viability, T/C (second compound 0.1 µM, first compound 10 µM) of 0.77% and a viability, T/C [18] of 2.58%. The viability, T/C [19] was 2.92%, the viability, T/C [20] was 3.31% and the viability, T/C [21] was 3.63%. It also gave a viability, T/C (second compound 0.316 µM, first compound 3.16 µM) of 2.24%, a viability, T/C (second compound 0.316 µM, first compound 10 µM) of 1.04% and a viability, T/C [22] of 3.75%. For the same compound, the viability, T/C [23] was 2.83%, the viability, T/C [24] was 3.86% and the viability, T/C [25] was 2.71%. The viability, T/C (second compound 1 µM, first compound 3.16 µM) was 2.69% and the viability, T/C (second compound 1 µM, first compound 10 µM) was 1.34%.

`O=C(c1ccc(F)c(F)c1Nc1ccc(I)cc1F)N1CC(O)([C@@H]2CCCCN2)C1` + CNC(C)C(=O)NC1CN(S(=O)(=O)c2cccc(S(=O)(=O)N3CCC4CCC(C(=O)NC(c5ccccc5)c5ccccc5)N4C(=O)C(NC(=O)C(C)NC)C3)c2)CCC2CCC(C(=O)NC(c3ccccc3)c3ccccc3)N2C1=O gave an IC50 [1] of under 3.16 nM, an IC50 [2] of under 3.16 nM and an IC50 [3] of under 3.16 nM. It also gave an IC50 [4] of under 3.16 nM, an IC50 [5] of under 3.16 nM and a viability, T/C (second compound 0.01 µM, first compound 0.00316 µM) of 8.04%. The viability, T/C (second compound 0.01 µM, first compound 0.01 µM) was 5.36%, the viability, T/C [6] was 5.61% and the viability, T/C [7] was 8.2%. The viability, T/C [8] was 12.4%, the viability, T/C [9] was 17.3% and the viability, T/C (second compound 0.0316 µM, first compound 0.00316 µM) was 3.55%. For the same compound, the viability, T/C (second compound 0.0316 µM, first compound 0.01 µM) was 6.82%, the viability, T/C [10] was 5.25% and the viability, T/C [11] was 3.88%. The viability, T/C [12] was 6.05%, the viability, T/C [13] was 7.48% and the viability, T/C [26] was 4.86%. It also gave a viability, T/C [27] of 5.49%, a viability, T/C [14] of 4.59% and a viability, T/C [15] of 2.13%. The viability, T/C [16] was 3.06%, the viability, T/C [17] was 4.14% and the viability, T/C [28] was 7.23%. For the same compound, the viability, T/C [29] was 3.09%, the viability, T/C [18] was 3.2% and the viability, T/C [19] was 2.51%. For the same compound, the viability, T/C [20] was 3.39%, the viability, T/C [21] was 3.61% and the viability, T/C [30] was 3.63%. The viability, T/C [31] was 3.54%, the viability, T/C [22] was 4.37% and the viability, T/C [23] was 2.53%. For the same compound, the viability, T/C [24] was 2.07% and the viability, T/C [25] was 3.08%.

`Cn1ncnc1[C@H]1c2n[nH]c(=O)c3cc(F)cc(c23)N[C@@H]1c1ccc(F)cc1` + Cc1c(S(C)(=O)=O)c(-c2cc(F)cc(N3CCN(c4ccc(NS(=O)(=O)c5ccc(NC(CCN6CCC(C(=O)OCCCP(=O)(O)O)CC6)CSc6ccccc6)c(S(=O)(=O)C(F)(F)F)c5)cc4)CC3)c2)c(-c2ccc(Cl)cc2)n1C(C)C was tested, and the IC50 [3] was over 100 nM, the IC50 [4] was over 100 nM and the IC50 [5] was over 100 nM. It also gave an IC50 [32] of over 100 nM, an IC50 [33] of over 100 nM and a viability, T/C (second compound 0.1 µM, first compound 0.000316 µM) of 107%. For the same compound, the viability, T/C (second compound 0.1 µM, first compound 0.001 µM) was 101%, the viability, T/C [26] was 102% and the viability, T/C [27] was 101%. It also gave a viability, T/C [14] of 94.8%, a viability, T/C [15] of 98.4% and a viability, T/C (second compound 0.316 µM, first compound 0.000316 µM) of 102%. The viability, T/C (second compound 0.316 µM, first compound 0.001 µM) was 105%, the viability, T/C [28] was 107% and the viability, T/C [29] was 95.2%. The viability, T/C [18] was 89%, the viability, T/C [19] was 93.4% and the viability, T/C (second compound 1 µM, first compound 0.000316 µM) was 97%. The viability, T/C (second compound 1 µM, first compound 0.001 µM) was 94.9%, the viability, T/C [30] was 94.5% and the viability, T/C [31] was 95.7%. For the same compound, the viability, T/C [22] was 86.2%, the viability, T/C [23] was 94% and the viability, T/C (second compound 3.16 µM, first compound 0.000316 µM) was 93.1%. It also gave a viability, T/C (second compound 3.16 µM, first compound 0.001 µM) of 84.4%, a viability, T/C (second compound 3.16 µM, first compound 0.00316 µM) of 78.5% and a viability, T/C (second compound 3.16 µM, first compound 0.01 µM) of 79.1%. The viability, T/C (second compound 3.16 µM, first compound 0.0316 µM) was 80.1%, the viability, T/C (second compound 3.16 µM, first compound 0.1 µM) was 80.1% and the viability, T/C (second compound 10 µM, first compound 0.000316 µM) was 77.2%. The viability, T/C (second compound 10 µM, first compound 0.001 µM) was 85%, the viability, T/C (second compound 10 µM, first compound 0.00316 µM) was 78.7% and the viability, T/C (second compound 10 µM, first compound 0.01 µM) was 73.9%. For the same compound, the viability, T/C (second compound 10 µM, first compound 0.0316 µM) was 62.8% and the viability, T/C (second compound 10 µM, first compound 0.1 µM) was 66.8%.

Compound `NC(=O)C(=Cn1cnc(-c2cc(C(F)(F)F)cc(C(F)(F)F)c2)n1)c1cncnc1` + Cc1c(S(C)(=O)=O)c(-c2cc(F)cc(N3CCN(c4ccc(NS(=O)(=O)c5ccc(NC(CCN6CCC(C(=O)OCCCP(=O)(O)O)CC6)CSc6ccccc6)c(S(=O)(=O)C(F)(F)F)c5)cc4)CC3)c2)c(-c2ccc(Cl)cc2)n1C(C)C has an IC50 [3] of 19.3 nM, an IC50 [4] of 23.3 nM and an IC50 [5] of 21.3 nM. The IC50 [32] was 19.8 nM, the IC50 [33] was 14.7 nM and the viability, T/C (second compound 0.1 µM, first compound 0.000949 µM) was 101%. It also gave a viability, T/C (second compound 0.1 µM, first compound 0.003 µM) of 89.2%, a viability, T/C (second compound 0.1 µM, first compound 0.00949 µM) of 72.1% and a viability, T/C (second compound 0.1 µM, first compound 0.03 µM) of 38.7%. It also gave a viability, T/C (second compound 0.1 µM, first compound 0.0949 µM) of 4.69%, a viability, T/C (second compound 0.1 µM, first compound 0.3 µM) of 1.47% and a viability, T/C (second compound 0.316 µM, first compound 0.000949 µM) of 95.5%. The viability, T/C (second compound 0.316 µM, first compound 0.003 µM) was 89%, the viability, T/C (second compound 0.316 µM, first compound 0.00949 µM) was 78.9% and the viability, T/C (second compound 0.316 µM, first compound 0.03 µM) was 43.4%. It also gave a viability, T/C (second compound 0.316 µM, first compound 0.0949 µM) of 3.08%, a viability, T/C (second compound 0.316 µM, first compound 0.3 µM) of 1.16% and a viability, T/C (second compound 1 µM, first compound 0.000949 µM) of 91.2%. For the same compound, the viability, T/C (second compound 1 µM, first compound 0.003 µM) was 83.5%, the viability, T/C (second compound 1 µM, first compound 0.00949 µM) was 72.3% and the viability, T/C (second compound 1 µM, first compound 0.03 µM) was 42.8%. For the same compound, the viability, T/C (second compound 1 µM, first compound 0.0949 µM) was 2.35%, the viability, T/C (second compound 1 µM, first compound 0.3 µM) was 1.29% and the viability, T/C (second compound 3.16 µM, first compound 0.000949 µM) was 78%. The viability, T/C (second compound 3.16 µM, first compound 0.003 µM) was 78.5%, the viability, T/C (second compound 3.16 µM, first compound 0.00949 µM) was 64.1% and the viability, T/C (second compound 3.16 µM, first compound 0.03 µM) was 42.5%. It also gave a viability, T/C (second compound 3.16 µM, first compound 0.0949 µM) of 2.09%, a viability, T/C (second compound 3.16 µM, first compound 0.3 µM) of 1.75% and a viability, T/C (second compound 10 µM, first compound 0.000949 µM) of 76.4%. For the same compound, the viability, T/C (second compound 10 µM, first compound 0.003 µM) was 74.3%, the viability, T/C (second compound 10 µM, first compound 0.00949 µM) was 59.6% and the viability, T/C (second compound 10 µM, first compound 0.03 µM) was 33.5%. The viability, T/C (second compound 10 µM, first compound 0.0949 µM) was 2.89% and the viability, T/C (second compound 10 µM, first compound 0.3 µM) was 1.28%.

With `CCN1CCN(Cc2ccc(Nc3ncc(F)c(-c4cc(F)c5nc(C)n(C(C)C)c5c4)n3)nc2)CC1` the viability, T/C (compound 0.00316 µM) was 106% and 104% and 96.7%, the viability, T/C (compound 0.01 µM) was 107% and 101% and 105% and the viability, T/C (compound 0.0316 µM) was 112% and 95.9% and 98.3%. The viability, T/C (compound 0.1 µM) was 103% and 110% and 106%, the viability, T/C (compound 0.316 µM) was 108% and 113% and 112% and the viability, T/C (compound 1 µM) was 120% and 116% and 119%. It also gave an IC50 (curve of compound) of over 1000 nM.
